In ChEMBL document CHEMBL3392984, “Two new protein tyrosine phosphatase 1B inhibitors, hyattellactones A and B, from the Indonesian marine sponge Hyattella sp” (Bioorg Med Chem Lett, 2015) one finds inhibition and IC50 data, which are given here for 4 compounds.

Assay [1] has as its system Jurkat. Kind of assay: Cytotoxicity against human Jurkat cells at 24.2 uM. The class given is functional, cell-based.
Assay [2] addresses T1, Tyrosine-protein phosphatase non-receptor type 1 (Homo sapiens) (UniProt P18031).
T1 sequence (whole entry): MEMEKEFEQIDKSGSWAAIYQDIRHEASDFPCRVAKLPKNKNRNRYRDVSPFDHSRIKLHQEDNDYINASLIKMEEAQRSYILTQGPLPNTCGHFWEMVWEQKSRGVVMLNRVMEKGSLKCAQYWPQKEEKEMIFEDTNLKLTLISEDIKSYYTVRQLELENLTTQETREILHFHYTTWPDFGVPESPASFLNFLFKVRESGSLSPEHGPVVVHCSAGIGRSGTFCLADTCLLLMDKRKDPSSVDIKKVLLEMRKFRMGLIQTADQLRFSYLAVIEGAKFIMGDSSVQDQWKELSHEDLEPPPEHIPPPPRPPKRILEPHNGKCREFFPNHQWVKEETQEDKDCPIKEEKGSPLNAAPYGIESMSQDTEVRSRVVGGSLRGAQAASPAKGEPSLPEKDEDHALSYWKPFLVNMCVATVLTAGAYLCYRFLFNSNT
Kind of assay: Inhibition of PTP1B (unknown origin) at 24.2 uM.

In assay [3] the target is T2, Tyrosine-protein phosphatase non-receptor type 1 (Homo sapiens, UniProt P18031).
T2 sequence (P18031 whole entry): T1 sequence (whole entry)
Kind of assay: Inhibition of PTP1B (unknown origin).

Active and inactive are the calls of the source. The rule behind the calls is not given here.

What is called inhibition is the drop in the measured response relative to a control, in per cent. On to `CC[C@@]1(C)CCC[C@]2(C)[C@H]3C[C@@H](O)[C@]4(C)C5=C(CC[C@H]4[C@]3(C)CC[C@@H]12)[C@H](C)OC5=O`, for which the inhibition result in assay [1] and in assay [2] was “inactive” in each case.

In the case of `CC[C@]12CCCC(C)(C)[C@@H]1CC[C@]1(C)[C@@H]2C[C@@H](O)[C@]2(C)C3=C(CC[C@@H]12)[C@H](C)OC3=O`, the inhibition entry in assay [1] was “inactive”. Also, the inhibition in assay [2] amounted to 42%.

Broadly, the IC50 is the concentration that gives 50% inhibition. High values mean lower potency, low ones higher potency. The compound `CC[C@]12CCCC(C)(C)[C@@H]1CC[C@]1(C)[C@@H]2C[C@@H](O)[C@]2(C)C3=C(CC[C@@H]12)[C@@H](C)OC3=O` showed a half-maximal inhibitory concentration (IC50) in assay [3] of 7.45 µM. In assay [1], the inhibition entry is “inactive”. In assay [2], this compound had an inhibition of 42%.

For `CC[C@@]1(C)CCC[C@]2(C)[C@H]3C[C@@H](O)[C@]4(C)C5=C(CC[C@H]4[C@]3(C)CC[C@@H]12)[C@@H](C)OC5=O`, 7.47 µM corresponded to half-maximal inhibition in assay [3] (IC50). Moreover, the inhibition result in assay [1] and in assay [2] was “inactive” throughout.
